In patent US9428504B2, “7-hydroxy-spiropipiperidine indolinyl antagonists of P2Y1 receptor” (BRISTOL-MYERS SQUIBB COMPANY, priority 2012, dated 2016):
Like-named read-outs stand apart in the source and are kept apart here.

Tested on: human platelet rich plasma (PRP)
Assay: ADP induced platelet aggregation assay
[1] = Homo sapiens, Platelet, read-out: PA IC50 (μM) @ 10 μM ADP, platelet aggregation induced by 10 μM ADP, human PRP

Structure (SMILES)	IC50 [1]	IC50 (read-out: PA IC50 (μM) @ 10 μM ADP, platelet aggregation induced by 10 μM ADP, human PRP)
CC(C)(C)CN1CCC2(CC1)CN(c1ccccc1NC(=O)Nc1nc3ccc(F)cc3s1)c1c(O)ccc(-c3nc4cc(Cl)ccc4s3)c12 [Example 133, 1-(2-(4-(5-Chlorobenzo[d]thiazol-2-yl)-7-hydroxy-1′-neopentylspiro[indoline-3,4′-piperidin]-1-yl)phenyl)-3-(6-fluorobenzo[d]thiazol-2-yl)urea]	0.3 µM	
CC(C)(C)CN1CCC2(CC1)CN(c1ccccc1NC(=O)Nc1ccc(OC(F)(F)F)cc1)c1c(O)ccc(-c3nc4cc(Cl)ccc4s3)c12 [Example 134, 1-(2-(4-(5-Chlorobenzo[d]thiazol-2-yl)-7-hydroxy-1′-neopentylspiro[indoline-3,4′-piperidin]-1-yl)phenyl)-3-(4-(trifluoromethoxy)phenyl)urea]	0.4 µM	
CC(C)(C)CN1CCC2(CC1)CN(c1ccccc1NC(=O)Nc1ccc(OC(F)(F)F)cc1)c1c(O)ccc(-c3nc4ccc(Cl)cc4s3)c12 [Example 136, 1-(2-(4-(6-Chlorobenzo[d]thiazol-2-yl)-7-hydroxy-1′-neopentylspiro[indoline-3,4′-piperidin]-1-yl)phenyl)-3-(4-(trifluoromethoxy)phenyl)urea]	0.5 µM	
CC(C)(C)CN1CCC2(CC1)CN(c1ccccc1NC(=O)Nc1nc3ccc(F)cc3s1)c1c(O)ccc(-c3nc4ccc(Cl)cc4s3)c12 [Example 139, 1-(2-(4-(6-Chlorobenzo[d]thiazol-2-yl)-7-hydroxy-1′-neopentylspiro[indoline-3,4′-piperidin]-1-yl)phenyl)-3-(6-fluorobenzo[d]thiazol-2-yl)urea]	0.4 µM	
CC(C)CN1CCC2(CC1)CN(c1ccccc1NC(=O)Nc1ccc(OC(F)(F)F)cc1)c1c(O)ccc(-c3nc4cc(Cl)ccc4s3)c12 [Example 142, 1-(2-(4-(5-Chlorobenzo[d]thiazol-2-yl)-7-hydroxy-1′-isobutylspiro[indoline-3,4′-piperidine]-1-yl)phenyl)-3-(4-(trifluoromethoxy)phenyl)urea]	0.5 µM	
CC(C)N1CCC2(CC1)CN(c1ccccc1NC(=O)Nc1ccc(OC(F)(F)F)cc1)c1c(O)ccc(-c3nc4cc(Cl)ccc4s3)c12 [Example 143, 1-(2-(4-(5-Chlorobenzo[d]thiazol-2-yl)-7-hydroxy-1′-isopropylspiro[indoline-3,4′-piperidine]-1-yl)phenyl)-3-(4(trifluoromethoxy)phenyl)urea]	0.9 µM	
CC(C)(C)CN1CCC2(CC1)CN(c1ccccc1NC(=O)Nc1nc3ccc(F)cc3s1)c1c(O)ccc(-c3nc4ccc(F)cc4s3)c12 [Example 148, 1-(6-Fluorobenzo[d]thiazol-2-yl)-3-(2-(4-(6-fluorobenzo[d]thiazol-2-yl)-7-hydroxy-1′-neopentylspiro[indoline-3,4′-piperidin]-1-yl)phenyl)urea]	0.3 µM	
CC(C)(C)CN1CCC2(CC1)CN(c1ccccc1NC(=O)Nc1ccc(OC(F)(F)F)cc1)c1c(O)cc(F)c(-c3nc4ccc(F)cc4s3)c12 [Example 151, 1-(2-(5-Fluoro-4-(6-fluorobenzo[d]thiazol-2-yl)-7-hydroxy-1′-neopentylspiro[indoline-3,4′-piperidin]-1-yl)phenyl)-3-(4-(trifluoromethoxy)phenyl)urea]		0.3 µM
CC(C)(C)CN1CCC2(CC1)CN(c1ccccc1NC(=O)Nc1csc(Cl)n1)c1c(O)cc(F)c(-c3ccc(Cl)cc3)c12 [Example 163, 1-(2-(4-(4-Chlorophenyl)-5-fluoro-7-hydroxy-1′-neopentylspiro[indoline-3,4′-piperidin]-1-yl)phenyl)-3-(2-chlorothiazol-4-yl)urea]	0.1 µM	
CC(C)CN1CCC2(CC1)CN(c1ccccc1NC(=O)Nc1nc3ccc(Cl)nc3s1)c1c(O)ccc(C(F)(F)F)c12 [Example 171, 1-(5-Chlorothiazolo[5,4-b]pyridin-2-yl)-3-(2-(7-hydroxy-1′-isobutyl-4-(trifluoromethyl)spiro[indoline-3,4′-piperidine]-1-yl)phenyl)urea]	0.3 µM	
